From paper PMC12519282, “Reduction of Negative Charge in Mercaptoacetyl-Based Chelators Influences the Biodistribution of Prostate-Specific Membrane Antigen-Targeting Pseudopeptides Labeled with Technetium-99m” (ACS Pharmacology & Translational Science, 2025)
Like-named read-outs stand apart in the source and are kept apart here. Marks after values point to notes of the source that are not given here.

Experiments:
[1] = type: in vitro ADME, murine; conditions: 1 h
Description: (§1) To evaluate the label’s stability, 10 μL (0.25 μg) of radiolabeled conjugates was incubated with 300× molar excess of cysteine or with PBS for 1 h at room temperature. The test was run in triplicate. The release of free technetium-99m was controlled by using iTLC and radio-HPLC analysis. The stability in serum was analyzed by mixing the radioconjugates (0.25 μg in 10 μL) with murine serum or PBS (40 μL) as a control. The samples were incubated for 1 h at 37 °C and analyzed by iTLC. The experiment was performed in triplicate. The octanol–water distribution coefficient (Log D) was determined experimentally by the addition of 100 pmol of the radiolabeled tracer to an Eppendorf tube containing PBS (500 μL) and n-octanol (500 μL), pH ∼ 7.4. The solution was vortexed and centrifuged, and aliquots (50 μL) from each phase were collected and measured using a gamma counter. The experiment was performed in triplicate.

physchem = type: physicochemical; conditions: pH 7.4
Description: as §1

PC3-pip cells [2] = assay: in vitro binding specificity test; type: cell-based; conditions: 1 h, 37 °C
Description: For the in vitro binding specificity test, approximately 8 × 10^5 PC3-pip cells per well were seeded 24 h before the experiment. […] Technetium-99m-labeled tracers were added to each well to reach a concentration of 2 nM. After 1 h of incubation at 37 °C, cells were washed with PBS solution, detached, and collected. Cell-associated activity was measured using a gamma counter and presented as the percentage of added activity.

PSMA = target: T1, PSMA (Homo sapiens, UniProt Q04609); assay: binding kinetics in real time on living PC3-pip cells (LigandTracer Yellow)
T1 construct: expressed in transfected cells; host or cells: PC3-pip (PSMA-transfected PC-3 prostate carcinoma cells), from Prof; Martin G. Pomper, Johns Hopkins University
Description: The binding kinetics of technetium-99m-labeled BQ0413, BQ0500, and BQ0501 were determined in PC3-pip cells in real-time using LigandTracer Yellow (Ridgeview Instruments AB, Uppsala, Sweden). The activity binding was recorded with 5 nM radiolabeled tracers for 150 min. After the binding kinetics were measured, the medium containing the labeled tracer was replaced with fresh medium, and the dissociation was monitored over 7 h. The association rate (k a) and the dissociation rate (k d) were computed using a 1:2 kinetic binding model in TraceDrawer software (Ridgeview Instruments AB, Uppsala, Sweden), and the equilibrium dissociation constant K D was calculated.

PC3-pip cells [3] = assay: cellular processing (membrane-bound / internalized activity); type: cell-based; conditions: 2 nM, continuous incubation, after 8 h
Description: To evaluate cellular processing of technetium-99m-labeled BQ0500 and BQ0501, PC3-pip cells were incubated with the radiolabeled tracer (2 nM), and at 1, 2, 4, and 8 h of continuous incubation, the membrane-bound and internalized fractions were collected as previously described using 4 M urea solution in 0.2 M glycine buffer (pH 2) to collect membrane-bound fraction and 1 N solution of NaOH to collect the internalized fraction. The activity in the samples was measured, and the percentage of membrane-bound and internalized activity was calculated. The experiments were performed in triplicate.

PC3-pip xenografts = assay: biodistribution and tumor targeting in PC3-pip tumor-bearing mice; type: in vivo
Excerpt: The injected masses for the in vivo experiments were chosen based on the findings for [^99mTc]-Tc-BQ0413: to study the general biodistribution of radiolabeled tracers in normal mice (NMRI), 40 pmol of tracer was used to avoid blocking of PSMA-mediated uptake in kidneys and salivary glands, to study tumor targeting, 5 nmol of tracer was used to decrease uptake in PSMA-expressing organs.
PSMA-expressing PCa xenografts were implanted in BALB/c nu/nu mice by subcutaneous injection of the PC3-pip cell suspension in PBS (10^7 cells/animal in 100 μL). The average animal weight in the experiment was 18 ± 2 g. The average tumor weight was 0.4 ± 0.2 g. For in vivo specificity control, 10^7 cells/animal PSMA-negative PC-3 cells were implanted. The average animal weight was 18 ± 1 g. The average tumor weight was 0.1 ± 0.1 g. Four mice per data point were used in the in vivo experiments.
For tumor-bearing mice, each mouse was intravenously injected with 5 nmol of [^99mTc]-Tc-BQ0413, [^99mTc]-Tc-BQ0500, and [^99mTc]-Tc-BQ0501 (60 kBq; the mass of the injected compound was adjusted with an unlabeled tracer). The mice were euthanized after lethal intraperitoneal injection of ketamine/xylazine, followed by exsanguination 1 and 3 h pi, similarly to the procedure described above.

[4] = PC3-pip tumor-bearing mice, 5 nmol/mouse iv, 1 h pi
[5] = PC3-pip tumor-bearing mice, 5 nmol/mouse iv, 3 h pi
[6] = PC3-pip tumor-bearing mice, 5 nmol/mouse iv, 3 h pi, listed as [99mTc]Tc-BQ0500

T1 sequence (Q04609 whole entry): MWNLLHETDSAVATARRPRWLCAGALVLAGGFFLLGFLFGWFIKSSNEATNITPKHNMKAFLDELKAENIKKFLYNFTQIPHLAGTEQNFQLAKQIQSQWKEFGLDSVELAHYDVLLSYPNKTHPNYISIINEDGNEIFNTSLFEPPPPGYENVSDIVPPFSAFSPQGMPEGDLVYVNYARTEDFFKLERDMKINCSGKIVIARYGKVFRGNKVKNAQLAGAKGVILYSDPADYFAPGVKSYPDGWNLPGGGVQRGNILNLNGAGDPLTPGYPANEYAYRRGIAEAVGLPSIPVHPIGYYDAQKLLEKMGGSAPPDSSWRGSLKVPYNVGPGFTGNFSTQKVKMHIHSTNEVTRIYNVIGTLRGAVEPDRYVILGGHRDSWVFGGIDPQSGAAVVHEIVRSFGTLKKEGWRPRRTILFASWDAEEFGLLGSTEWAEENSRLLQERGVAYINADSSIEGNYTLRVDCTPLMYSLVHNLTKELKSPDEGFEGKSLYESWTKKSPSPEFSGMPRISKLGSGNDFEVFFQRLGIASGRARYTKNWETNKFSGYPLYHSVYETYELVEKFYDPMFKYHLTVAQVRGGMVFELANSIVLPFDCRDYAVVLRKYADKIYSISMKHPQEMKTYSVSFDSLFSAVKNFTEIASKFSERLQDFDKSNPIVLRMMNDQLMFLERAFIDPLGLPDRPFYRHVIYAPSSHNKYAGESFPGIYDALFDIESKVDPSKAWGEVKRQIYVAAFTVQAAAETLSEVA

For CC(=O)NC(CCCCNC(=O)CNC(=O)C(CCC(=O)O)NC(=O)C(CO)NC(=O)C(CCC(=O)O)NC(=O)CS)C(=O)NCCCCCCCC(=O)NC(Cc1ccc(O)cc1)C(=O)NC(Cc1ccc2ccccc2c1)C(=O)NCCCCC(NC(=O)NC(CCC(=O)O)C(=O)O)C(=O)O (stereo not shown) [[^99mTc]Tc-BQ0500, metal not drawn], the “intact tracer in PBS” value ([1]; PBS control, 37 °C, n = 3) was 99.0 ± 0.5%, the “intact tracer in murine serum” value ([1]; mouse, 5 µg/mL) was 99.7 ± 0.3% and the “Log D (octanol–water distribution coefficient)” value (physchem) was −2.5 ± 0.1. For the same molecule, the “activity uptake by PC3-pip cells” value (PC3-pip cells [2]; 2 nM tracer) was 71 ± 4 % of added activity, the “activity uptake by PC3-pip cells after presaturation with PSMA-11” value (PC3-pip cells [2]; 250-fold excess of nonlabeled PSMA-11, 2 nM tracer) was “significantly (p < 0.0001) decreased” and the “B max1 (binding maximum)” value (PSMA; 5 nM tracer, 1:2 model (1:1 for BQ0413)) was 881 CPS. For the same molecule, the “B max2 (binding maximum)” value (PSMA; 5 nM tracer, 1:2 model, second interaction) was 40 CPS, the Kd (PSMA; 5 nM tracer, 1:2 model, second interaction, read-out: K D2) was 0.052 nM and the “affinity compromised in comparison with [99mTc]Tc-BQ0413” value (PSMA; PC3-pip cells) was 3–5 fold. For the same molecule, the Kd (PSMA; as rounded in comparison table, read-out: K D1) was 0.3 nM, the Kd (PSMA; as rounded in comparison table, read-out: K D2) was 0.05 nM and the “maximum of internalized activity” value (PC3-pip cells [3]) was 42–43 % of cell-associated activity. For the same molecule, the “activity uptake in intestines with content, higher compared to [99mTc]Tc-BQ0413” value (PC3-pip xenografts; PC3-pip tumor-bearing mice, 5 nmol) was 5.3 fold, the activity in carcass (PC3-pip xenografts; [4]) was 7 ± 1 ^b %IA/sample and the “activity in intestines with content” value (PC3-pip xenografts; [4]) was 3.9 ± 0.4 ^b, ^c, ^d %IA/sample. For the same molecule, the “activity uptake in blood” value (PC3-pip xenografts; [4]) was 1.1 ± 0.2 ^b %IA/g, the “activity uptake in bone” value (PC3-pip xenografts; [4]) was 0.5 ± 0.1 ^b, ^d %IA/g and the “activity uptake in kidney” value (PC3-pip xenografts; [4]) was 51 ± 3 ^b ^c %IA/g. The “activity uptake in liver” value (PC3-pip xenografts; [4]) was 0.9 ± 0.2 ^b %IA/g, the “activity uptake in lung” value (PC3-pip xenografts; [4]) was 1.3 ± 0.2 ^b %IA/g and the “activity uptake in muscle” value (PC3-pip xenografts; [4]) was 0.3 ± 0.1 ^b %IA/g. For the same molecule, the “activity uptake in pancreas” value (PC3-pip xenografts; [4]) was 0.4 ± 0.1 ^b %IA/g, the “activity uptake in salivary gland” value (PC3-pip xenografts; [4]) was 0.7 ± 0.1 ^b ^, ^d %IA/g and the “activity uptake in small intestines” value (PC3-pip xenografts; [4]) was 0.6 ± 0.2 ^c %IA/g. The “activity uptake in spleen” value (PC3-pip xenografts; [4]) was 2.5 ± 0.2 ^b %IA/g, the “activity uptake in stomach” value (PC3-pip xenografts; [4]) was 0.47 ± 0.02 ^d %IA/g and the “activity uptake in tumor” value (PC3-pip xenografts; [4]) was 29 ± 3 %IA/g. The tumor-to-blood ratio (PC3-pip xenografts; [4]) was 28 ± 6 ^b, the tumor-to-bone ratio (PC3-pip xenografts; [4]) was 65 ± 15 ^b ^, ^d and the tumor-to-kidney ratio (PC3-pip xenografts; [4]) was 0.6 ± 0.1 ^b ^, ^c. For the same molecule, the tumor-to-liver ratio (PC3-pip xenografts; [4]) was 32 ± 7 ^b, the tumor-to-lung ratio (PC3-pip xenografts; [4]) was 23 ± 4 ^b and the tumor-to-muscle ratio (PC3-pip xenografts; [4]) was 101 ± 28 ^b. The tumor-to-pancreas ratio (PC3-pip xenografts; [4]) was 69 ± 13, the tumor-to-salivary gland ratio (PC3-pip xenografts; [4]) was 42 ± 8 ^b ^, ^d and the tumor-to-small intestines ratio (PC3-pip xenografts; [4]) was 51 ± 20. For the same molecule, the tumor-to-spleen ratio (PC3-pip xenografts; [4]) was 12 ± 2 ^b, the tumor-to-stomach ratio (PC3-pip xenografts; [4]) was 61 ± 7 ^d and the activity in carcass (PC3-pip xenografts; [5]) was 4 ± 1 ^d %IA/sample. The “activity in intestines with content” value (PC3-pip xenografts; [5]) was 5.4 ± 0.3 ^c, ^d %IA/sample, the “activity uptake in blood” value (PC3-pip xenografts; [5]) was 0.3 ± 0.1 ^c ^, ^d %IA/g and the “activity uptake in bone” value (PC3-pip xenografts; [5]) was 0.10 ± 0.02 %IA/g. The “activity uptake in kidney” value (PC3-pip xenografts; [5]) was 33 ± 3 ^c, ^d %IA/g, the “activity uptake in liver” value (PC3-pip xenografts; [5]) was 0.4 ± 0.1 ^c %IA/g and the “activity uptake in lung” value (PC3-pip xenografts; [5]) was 0.4 ± 0.1 ^c %IA/g. For the same molecule, the “activity uptake in muscle” value (PC3-pip xenografts; [5]) was 0.10 ± 0.03 %IA/g, the “activity uptake in pancreas” value (PC3-pip xenografts; [5]) was 0.3 ± 0.2 %IA/g and the “activity uptake in salivary gland” value (PC3-pip xenografts; [5]) was 0.2 ± 0.1 ^d %IA/g. For the same molecule, the “activity uptake in small intestines” value (PC3-pip xenografts; [5]) was 0.4 ± 0.2 %IA/g, the “activity uptake in spleen” value (PC3-pip xenografts; [5]) was 1.4 ± 0.3 ^c %IA/g and the “activity uptake in stomach” value (PC3-pip xenografts; [5]) was 1.6 ± 1.2 ^c %IA/g. For the same molecule, the tumor-to-bone ratio (PC3-pip xenografts; [5]) was 341 ± 100 ^d, the tumor-to-kidney ratio (PC3-pip xenografts; [5]) was 1.0 ± 0.2 ^c and the tumor-to-liver ratio (PC3-pip xenografts; [5]) was 79 ± 22 ^c. The tumor-to-lung ratio (PC3-pip xenografts; [5]) was 71 ± 15 ^c, the tumor-to-muscle ratio (PC3-pip xenografts; [5]) was 332 ± 99 and the tumor-to-pancreas ratio (PC3-pip xenografts; [5]) was 140 ± 82 ^c. For the same molecule, the tumor-to-salivary gland ratio (PC3-pip xenografts; [5]) was 141 ± 42, the tumor-to-small intestines ratio (PC3-pip xenografts; [5]) was 94 ± 38 ^c and the tumor-to-spleen ratio (PC3-pip xenografts; [5]) was 22 ± 5 ^c. For the same molecule, the tumor-to-stomach ratio (PC3-pip xenografts; [5]) was 38 ± 39 ^c, the activity in carcass (PC3-pip xenografts; [6]) was 4±1 %IA/sample and the “activity in intestines with content” value (PC3-pip xenografts; [6]) was 5.4±0.3 %IA/sample. For the same molecule, the “activity uptake in blood” value (PC3-pip xenografts; [6]) was 0.3±0.1 %IA/g, the “activity uptake in bone” value (PC3-pip xenografts; [6]) was 0.10±0.02 %IA/g and the “activity uptake in kidney” value (PC3-pip xenografts; [6]) was 33±3 %IA/g. For the same molecule, the “activity uptake in liver” value (PC3-pip xenografts; [6]) was 0.4±0.1 %IA/g, the “activity uptake in lung” value (PC3-pip xenografts; [6]) was 0.4±0.1 %IA/g and the “activity uptake in muscle” value (PC3-pip xenografts; [6]) was 0.10±0.03 %IA/g. For the same molecule, the “activity uptake in pancreas” value (PC3-pip xenografts; [6]) was 0.3±0.2 %IA/g, the “activity uptake in salivary gland” value (PC3-pip xenografts; [6]) was 0.2±0.1 %IA/g and the “activity uptake in small intestines” value (PC3-pip xenografts; [6]) was 0.4±0.2 %IA/g. For the same molecule, the “activity uptake in spleen” value (PC3-pip xenografts; [6]) was 1.4±0.3 %IA/g, the “activity uptake in stomach” value (PC3-pip xenografts; [6]) was 1.6±1.2 %IA/g and the “activity uptake in tumor” value (PC3-pip xenografts; [6]) was 31±4 %IA/g. The excretion pathway (PC3-pip xenografts; PC3-pip xenografts) was “predominantly renal”.
